Data reported in patent EP4813990A1, “COMPOUND FOR TREATING CANCER” (INNOLAKE BIOPHARMA (HANGZHOU) CO., LTD., priority 2023, dated 2025).
Where “and” joins values, the source holds several entries; their conditions need not be identical. Identical values can stand only once.

Legend:
Plasma protein binding [1] = assay type: in vitro ADME; conditions: human plasma
A3 receptor = A3 receptor (Homo sapiens, UniProt P0DMS8); assay: Adenosine receptor selectivity, A2aR compared with A3; assay type: binding
A3 receptor, sequence (P0DMS8 whole entry): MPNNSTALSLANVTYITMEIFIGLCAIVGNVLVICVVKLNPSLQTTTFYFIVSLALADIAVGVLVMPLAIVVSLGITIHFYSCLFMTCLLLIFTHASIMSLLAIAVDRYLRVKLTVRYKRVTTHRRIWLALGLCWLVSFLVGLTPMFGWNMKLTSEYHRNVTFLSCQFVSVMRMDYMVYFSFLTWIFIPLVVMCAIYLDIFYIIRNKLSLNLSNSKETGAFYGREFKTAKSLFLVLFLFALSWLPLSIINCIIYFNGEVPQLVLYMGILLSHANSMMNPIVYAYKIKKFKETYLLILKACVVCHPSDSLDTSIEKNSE
Excerpt: Meanwhile, ILB-2109 had high selectivity for A2aR (compared with A1, A2b and A3 receptors, the selectivity was 18.9 times, 40.7 times and 3424.7 times respectively).

Plasma protein binding [2] = assay type: in vitro ADME; conditions: one range given for CD-1 mice, Sprague-Dawley rats, Beagle dogs and cynomolgus monkeys
[3] = In vivo metabolism in cynomolgus monkeys (plasma profile); conditions: male and female monkeys
Excerpt: In in vivo metabolism experiments of cynomolgus monkeys, the relative abundance of parent drug ILB-2109 in plasma samples of male and female monkeys was more than 83%, which was the main component in plasma samples. ILB-2109 was mainly metabolized via oxidation, dehydrogenation and glucuronidation in monkey plasma.

[4] = system: histidine-deficient Salmonella typhimurium strains (TA97a, TA98, TA100, TA102 and TA1535); assay: AMES reverse mutation test; assay type: cell-based; conditions: 128 ~ 5000 µg/plate, with or without S9 metabolic activation system
Excerpt: This test detected the ability of ILB-2109 to induce reverse mutation of histidine-deficient Salmonella typhimurium strains (TA97a, TA98, TA100, TA102 and TA1535) with and without exogenous metabolic activation system. […] Therefore, under the research conditions, the Ames test result was negative.

[5] = Liver microsome metabolism; assay type: in vitro ADME
Excerpt: The main biotransformation pathways of ILB-2109 in in vitro liver microsomes and hepatocytes include oxidation, dehydrogenation and glucuronidation (hepatocyte biotransformation pathway), and no human-specific metabolites were detected.

CHL cells = assay: Chromosome aberration test; assay type: cell-based; conditions: CHL cells treated at 3.2, 16.0 and 80.0 µg/mL
Excerpt: The test observed the effect of ILB-2109 on chromosome structure and number of mammalian cells (CHL cells).

[6] = system: MC38 mouse colon cancer xenograft; assay: MC38 mouse colon cancer xenograft model, single agent and combination with anti-CTLA-4 antibody; assay type: in vivo, C57BL/6 mice; conditions: for Tumor Volume (mm^3) (Day 9): Day 9 after inoculation; for Tumor Volume (mm^3) (Day 9) / Tumor Volume (mm^3) / Tumor Volume (mm^3) (Day 15) / Tumor Weight / Tumor Volume (mm^3) (Day 12): Mean ± SEM; for Tumor Volume (mm^3) (Day 9) / Tumor Volume (mm^3) / Tumor Volume (mm^3) (Day 15) / Number of Animals with Tumor Volume > 250mm^3 / T/C (%) (Day 21) / Tumor Volume (mm^3) (Day 12) / TGI (%) (Day 21): n=8; for Tumor Volume (mm^3) (Day 15): Day 15 after inoculation; for Number of Animals with Tumor Volume > 250mm^3 / T/C (%) (Day 21) / TGI (%) (Day 21): Day 21; for Tumor Weight: end of experiment (D23); for Tumor Volume (mm^3) (Day 12): head prints Day 12; for TGI (%) (Day 21): tumor volume based; for TGITW (%): tumor weight based
Protocol: A total of 6 groups were set up in the experiment: vehicle control group, ILB-2109 low-dose and high-dose single-agent groups, Anti-CTLA-4 antibody single-agent group, and two dose groups of ILB-2109 and Anti-CTLA-4 in combination. Table 1. Experimental Administration Dosage and Grouping
Anti-CTLA-4 antibody was aseptically diluted to 0.5 mg/mL with DPBS and prepared immediately before administration.
ILB-2109 was formulated to 10 mg/mL with vehicle, 1% tween80 + 9% PEG400 + 90% ddwater. Specific preparation method: Prepare Vehicle 1 (10 mL Tween80, 90 mL PEG400, 900 mL ddwater), weigh 1120 mg of ILB-2109 and add into 112 mL of Vehicle 1, grind to basically uniform, then ultrasonicate for about 2-3 minutes to obtain a homogeneous suspension. An appropriate amount of the solution was diluted to 5 mg/mL with Vehicle 1 (1% Tween80 + 9% PEG400 + 90% ddwater) at a ratio of 1:1. The prepared solution was aliquoted into 5 mL EP tubes with 4 mL per tube and stored at 4°C. Prepared once a week.
48 female C57BL/6 mice were inoculated subaxillarily with 0.1 mL DPBS containing 2×10^5 MC38 cells. On the day of inoculation, mice were randomly divided into vehicle control group, ILB-2109 low-dose group and ILB-2109 high-dose group according to body weight, with 16 animals in each group. The day of inoculation was defined as D1. On D9 after inoculation, the average tumor volume of the vehicle control group reached about 64 mm^3. According to animal tumor volume and body weight, the original vehicle control group was divided into vehicle control group and Anti-CTLA-4 antibody single-agent group; the original ILB-2109 low-dose group was divided into ILB-2109 low-dose single-agent group and the combination group of low-dose ILB-2109 and anti-CTLA-4 antibody; the original ILB-2109 high-dose group was divided into ILB-2109 high-dose single-agent group and the combination group of high-dose ILB-2109 and Anti-CTLA-4 antibody. Administration was carried out for each group on the day of regrouping according to the set dosage.
Tumor volume was measured and body weight was weighed 3 times a week.
All animals were euthanized on D23 after inoculation, and tumor samples were collected and weighed.
Tumor volume was measured 3 times a week, and tumor growth inhibition TGITV (%) was calculated. The calculation formula of Tumor Volume (TV) is: TV = 1/2 × a × b^2 [formula] where a and b represent the major diameter and minor diameter of the tumor mass respectively. [formula]
Tumor weight of animals was measured during sample collection. The tumor growth inhibition was calculated according to the following formula: Tumor Growth Inhibition based on Tumor Weight TGITW(%) = (TWc−TWt)/TWc × 100% [formula] where TWt is the mean tumor weight of the treatment group, and TWc is the mean tumor weight of the vehicle control group.
All data were expressed as Mean ± SEM.
In this experiment, data on D21 after inoculation were used for statistical analysis by PRISM software. T test was used for comparison between two groups, and one-way ANOVA was used for comparison among three or more groups.

[7] = ILB-2109 100 mg/kg gavage twice a day
[8] = ILB-2109 50 mg/kg gavage twice a day

In the case of `Cc1cc(-c2c(-c3ccccc3)nc(N)n3nc(CO)nc23)cc(C(F)(F)F)n1` [ILB-2109], the “binding rate in plasma” value (Plasma protein binding [1]) is reported as 95.1-95.8%, the “selectivity for A2aR compared with A3 receptor” value (A3 receptor) is reported as 3424.7 times and the “binding rate in plasma” value (Plasma protein binding [2]) is reported as 87.3%-95.0%. The “relative abundance of parent drug in plasma samples” value [3] was “more than 83%”, the Ames test result [4] was “negative” and the metabolism rate ([5]; Beagle dogs liver microsomes) was “slowly metabolized or non-metabolized”. For the same molecule, the metabolism rate ([5]; CD-1 mice liver microsomes) was “moderate rate”, the metabolism rate ([5]; SD rats liver microsomes) was “moderate rate” and the metabolism rate ([5]; cynomolgus monkeys liver microsomes) was “slowly metabolized or non-metabolized”. The metabolism rate ([5]; human liver microsomes) was “slowly metabolized or non-metabolized”, the “chromosome aberration test result” value (CHL cells) was “negative” and the “Tumor Volume (mm^3) (Day 9)” value ([6]; ILB-2109 50 mg/kg gavage twice a day, 50 mg/kg) was 63±6 mm^3 and 63.65±6 mm^3. For the same molecule, the “Tumor Volume (mm^3) (Day 9)” value [6, 7] was 58±4 mm^3, the “Tumor Volume (mm^3)” value ([6]; Day 11 after inoculation, ILB-2109 50 mg/kg gavage twice a day) was 115±13 mm^3 and the “Tumor Volume (mm^3)” value ([6]; Day 11 after inoculation, ILB-2109 100 mg/kg gavage twice a day) was 78±8 mm^3. The “Tumor Volume (mm^3)” value ([6]; Day 13 after inoculation, ILB-2109 50 mg/kg gavage twice a day) was 143±20 mm^3, the “Tumor Volume (mm^3)” value ([6]; Day 13 after inoculation, ILB-2109 100 mg/kg gavage twice a day) was 105±11 mm^3 and the “Tumor Volume (mm^3) (Day 15)” value [6, 8] was 225±34 mm^3. The “Tumor Volume (mm^3) (Day 15)” value ([6]; ILB-2109 100 mg/kg gavage twice a day, 100 mg/kg) was 257±18 mm^3 and 157±18 mm^3, the “Tumor Volume (mm^3)” value ([6]; Day 17 after inoculation, ILB-2109 50 mg/kg gavage twice a day) was 269±41 mm^3 and the “Tumor Volume (mm^3)” value ([6]; Day 17 after inoculation, ILB-2109 100 mg/kg gavage twice a day) was 207±25 mm^3. For the same molecule, the “Number of Animals with Tumor Volume > 250mm^3” value [6, 8] was 8/8, the “T/C (%) (Day 21)” value [6, 8] was 70.61% and the “Number of Animals with Tumor Volume > 250mm^3” value [6, 7] was 5/8. For the same molecule, the “T/C (%) (Day 21)” value [6, 7] was 52.76%, the “Tumor Volume (mm^3)” value ([6]; Day 21 after inoculation, ILB-2109 50 mg/kg gavage twice a day) was 494±87 mm^3 and the “Tumor Volume (mm^3)” value ([6]; Day 21 after inoculation, ILB-2109 100 mg/kg gavage twice a day) was 369±54 mm^3. The “Tumor Weight” value [6, 8] was 1.7030 ± 0.1419 g, the “Tumor Weight” value [6, 7] was 0.6318 ± 0.1355 g and the “Tumor Volume (mm^3) (Day 12)” value [6, 8] was 494±87 mm^3. For the same molecule, the “Tumor Volume (mm^3) (Day 12)” value [6, 7] was 369±54 mm^3, the “TGI (%) (Day 21)” value [6, 8] was 29.39% and the “TGI (%) (Day 21)” value [6, 7] was 47.24%. For the same molecule, the “TGITW (%)” value [6, 8] was 31% and the “TGITW (%)” value [6, 7] was 38%.
